Assay results published in US9533985B2, “Sulfonamide derivative and medicinal use thereof” (EA Pharma Co., Ltd., priority 2012, dated 2017).

What was measured:
Format in all cases: cell-based
α4β7 integrin [1] = target: T1, α4β7 integrin (Homo sapiens (Human), UniProt P13612+P26010); assay: MAdCAM-1/α4β7 integrin binding inhibitory activity evaluation test in the presence of serum (1); settings: RPMI-8866 cells binding to mouse MAdCAM-1/Fc, human serum at final concentration of 50%; read-out: α4β7 with serum added, IC50
T1 sequence (P13612 34-1032): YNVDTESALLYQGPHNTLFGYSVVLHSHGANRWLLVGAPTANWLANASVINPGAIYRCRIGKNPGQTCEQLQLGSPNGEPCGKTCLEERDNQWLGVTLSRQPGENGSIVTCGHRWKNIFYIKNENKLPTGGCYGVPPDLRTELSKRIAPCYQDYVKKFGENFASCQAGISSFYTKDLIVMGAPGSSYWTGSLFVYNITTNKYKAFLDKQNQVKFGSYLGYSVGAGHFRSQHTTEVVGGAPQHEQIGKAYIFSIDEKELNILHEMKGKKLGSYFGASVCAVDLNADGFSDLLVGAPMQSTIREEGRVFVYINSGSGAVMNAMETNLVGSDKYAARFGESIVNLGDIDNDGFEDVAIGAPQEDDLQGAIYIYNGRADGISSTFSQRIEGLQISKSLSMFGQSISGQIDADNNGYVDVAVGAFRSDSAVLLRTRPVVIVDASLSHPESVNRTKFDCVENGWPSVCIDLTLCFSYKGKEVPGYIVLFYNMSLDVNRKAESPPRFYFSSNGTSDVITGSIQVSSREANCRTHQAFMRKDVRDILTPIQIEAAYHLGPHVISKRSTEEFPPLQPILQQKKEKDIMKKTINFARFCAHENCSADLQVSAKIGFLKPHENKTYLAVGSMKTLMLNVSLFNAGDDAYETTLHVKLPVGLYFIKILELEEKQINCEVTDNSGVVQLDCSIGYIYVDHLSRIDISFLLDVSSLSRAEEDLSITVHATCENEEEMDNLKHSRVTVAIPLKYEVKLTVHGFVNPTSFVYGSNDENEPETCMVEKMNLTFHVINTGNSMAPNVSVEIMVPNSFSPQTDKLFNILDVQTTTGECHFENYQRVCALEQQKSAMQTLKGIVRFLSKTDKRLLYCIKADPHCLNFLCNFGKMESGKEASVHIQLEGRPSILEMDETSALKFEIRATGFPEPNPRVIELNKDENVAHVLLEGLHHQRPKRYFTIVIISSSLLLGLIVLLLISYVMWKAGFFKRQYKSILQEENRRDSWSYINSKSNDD
T1 sequence (P26010 20-798): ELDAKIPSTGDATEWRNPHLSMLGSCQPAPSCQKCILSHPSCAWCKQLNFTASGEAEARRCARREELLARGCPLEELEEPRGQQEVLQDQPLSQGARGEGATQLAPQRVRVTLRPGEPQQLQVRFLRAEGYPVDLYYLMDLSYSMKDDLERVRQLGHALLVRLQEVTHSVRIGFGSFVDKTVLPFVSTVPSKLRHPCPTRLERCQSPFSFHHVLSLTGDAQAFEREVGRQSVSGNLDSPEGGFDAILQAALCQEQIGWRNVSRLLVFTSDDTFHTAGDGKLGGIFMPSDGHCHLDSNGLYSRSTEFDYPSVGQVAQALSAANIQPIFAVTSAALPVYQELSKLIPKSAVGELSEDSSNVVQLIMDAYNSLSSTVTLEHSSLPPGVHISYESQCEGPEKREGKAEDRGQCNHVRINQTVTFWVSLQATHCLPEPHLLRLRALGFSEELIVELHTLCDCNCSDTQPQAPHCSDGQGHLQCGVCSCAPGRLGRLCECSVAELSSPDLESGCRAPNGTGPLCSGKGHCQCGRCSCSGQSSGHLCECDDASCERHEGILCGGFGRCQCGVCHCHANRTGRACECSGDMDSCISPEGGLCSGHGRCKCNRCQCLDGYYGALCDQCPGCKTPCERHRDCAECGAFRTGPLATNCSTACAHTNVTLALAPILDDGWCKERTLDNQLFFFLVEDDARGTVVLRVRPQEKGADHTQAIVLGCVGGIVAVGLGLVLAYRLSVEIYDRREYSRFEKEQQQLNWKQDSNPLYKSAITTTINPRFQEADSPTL
Procedure, shortened: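 Plates were coated with recombinant mouse MAdCAM-1/Fc (1 μg/mL, pH 9.6). Human RPMI-8866 B cells (α4β7-expressing) bound for 15–60 min at 30 °C in DMEM/HEPES/BSA with 4 mM MnCl2 and 50% human serum, with test substance present. Bound cells were quantified by LDH absorbance at 490 nm, run in duplicate, and IC50 was calculated relative to no-compound wells.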

α4β1 integrin = α4β1 integrin (Homo sapiens (Human), UniProt P05556+P13612); assay: VCAM-1/α4β1 integrin binding inhibitory activity evaluation test (Jurkat cell adhesion to VCAM-1/Fc); settings: Jurkat cells binding to recombinant human VCAM-1/Fc
Chain of α4β1 integrin (P13612 34-1032): as the sequence (P13612 34-1032) above
Chain of α4β1 integrin (P05556 21-798): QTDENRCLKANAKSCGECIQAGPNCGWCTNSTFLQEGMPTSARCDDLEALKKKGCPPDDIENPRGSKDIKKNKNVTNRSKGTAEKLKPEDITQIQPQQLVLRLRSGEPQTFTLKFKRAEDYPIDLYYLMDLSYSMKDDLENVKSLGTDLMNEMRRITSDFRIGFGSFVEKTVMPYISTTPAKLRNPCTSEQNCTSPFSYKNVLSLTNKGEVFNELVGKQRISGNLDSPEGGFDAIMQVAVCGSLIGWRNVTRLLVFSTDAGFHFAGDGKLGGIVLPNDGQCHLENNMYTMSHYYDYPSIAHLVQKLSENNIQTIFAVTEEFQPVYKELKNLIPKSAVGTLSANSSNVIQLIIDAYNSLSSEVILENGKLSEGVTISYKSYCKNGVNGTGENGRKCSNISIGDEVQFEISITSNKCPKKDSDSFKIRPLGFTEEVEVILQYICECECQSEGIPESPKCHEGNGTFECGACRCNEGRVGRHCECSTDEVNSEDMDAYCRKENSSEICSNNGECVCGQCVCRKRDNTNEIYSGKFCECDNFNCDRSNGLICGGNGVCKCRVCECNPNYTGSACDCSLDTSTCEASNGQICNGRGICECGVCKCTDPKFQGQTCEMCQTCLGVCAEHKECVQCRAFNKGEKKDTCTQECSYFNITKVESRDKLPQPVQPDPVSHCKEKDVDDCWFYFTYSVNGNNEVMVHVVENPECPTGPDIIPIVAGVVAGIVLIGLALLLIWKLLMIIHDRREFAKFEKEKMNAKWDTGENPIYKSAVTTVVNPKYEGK
Procedure, shortened: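 Jurkat cells (5×10^5/well) added with compounds to plates coated with recombinant human VCAM-1/Fc (1 μg/mL coating), in DMEM binding buffer with 40 mM HEPES, 0.2% BSA and 4 mM MnCl2, 15-60 min at 30° C. Bound cells lysed and quantified by LDH absorbance at 490 nm; IC50 relative to compound-free wells, in duplicate.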

α4β7 integrin [2] = target: T1, α4β7 integrin; assay: MAdCAM-1/α4β7 integrin binding inhibitory activity evaluation test (RPMI-8866 cell adhesion to MAdCAM-1/Fc); settings: for Selectivity: IC50 in VCAM-1/α4β1 test divided by IC50 in MAdCAM-1/α4β7 test; for IC50: RPMI-8866 cells binding to recombinant mouse MAdCAM-1/Fc, no serum
Procedure, shortened: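 Human RPMI-8866 cells (α4β7+) adhered for 15–60 min at 30 °C to plates coated with recombinant mouse MAdCAM-1/Fc, in DMEM binding buffer with 4 mM MnCl2 and test compound. Bound cells were quantified via LDH activity (A490) after lysis. IC50 is the 50% inhibition of binding relative to compound-free wells.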

| SMILES | IC50 (α4β7 integrin [1]) [nM] | IC50 (α4β1 integrin) [nM] | Selectivity (α4β7 integrin [2]) | IC50 (α4β7 integrin [2]) [nM] |
| --- | --- | --- | --- | --- |
| Cn1c(=O)n(-c2ccc(C[C@H](NC(=O)c3c(F)cc(NS(=O)(=O)c4ccc(C5=CCNCC5)cc4)cc3F)C(=O)O)cc2)c(=O)c2ccncc21 [Example 69, N-[2,6-Difluoro-4-({[4-(1,2,3,6-tetrahydropyridin-4-yl)phenyl]sulfonyl}amino)benzoyl]-4-(1-methyl-2,4-dioxo-1,4-dihydropyrido[3,4-d]pyrimidin-3(2H)-yl)-L-phenylalanine] | 1.3 | 31 | 150 | 0.21 |
| Cc1cc(-c2ccc(S(=O)(=O)Nc3cc(F)c(C(=O)N[C@@H](Cc4ccc(-n5c(=O)c6ccncc6n(C)c5=O)cc4)C(=O)O)c(F)c3)cc2)cc(C)n1 [Example 70, N-[4-({[4-(2,6-Dimethylpyridin-4-yl)phenyl]sulfonyl}amino)-2,6-difluorobenzoyl]-4-(1-methyl-2,4-dioxo-1,4-dihydropyrido[3,4-d]pyrimidin-3(2H)-yl)-L-phenylalanine] | 21 | 270 | 660 | 0.41 |
| Cn1c(=O)n(-c2ccc(C[C@H](NC(=O)c3c(F)cc(NS(=O)(=O)c4ccc(-n5ccnn5)cn4)cc3F)C(=O)O)cc2)c(=O)c2ccncc21 [Example 71, N-[2,6-Difluoro-4-({[5-(1H-1,2,3-triazol-1-yl)pyridin-2-yl]sulfonyl}amino)benzoyl]-4-(1-methyl-2,4-dioxo-1,4-dihydropyrido[3,4-d]pyrimidin-3(2H)-yl)-L-phenylalanine] | 0.72 | 22 | 220 | 0.098 |
| Cn1ccc(=O)n(-c2ccc(C[C@H](NC(=O)c3c(F)cc(NS(=O)(=O)c4ccc(-n5nccn5)cn4)cc3F)C(=O)O)cc2)c1=O [Example 72, N-[2,6-Difluoro-4-({[5-(2H-1,2,3-triazol-2-yl)pyridin-2-yl]sulfonyl}amino)benzoyl]-4-(3-methyl-2,6-dioxo-3,6-dihydropyrimidin-1(2H)-yl)-L-phenylalanine] | 23 | 400 | 250 | 1.6 |
| Cn1ccc(=O)n(-c2ccc(C[C@H](NC(=O)c3c(F)cc(NS(=O)(=O)c4ccc(-n5ccnn5)cn4)cc3F)C(=O)O)cc2)c1=O [Example 73, N-[2,6-Difluoro-4-({[5-(1H-1,2,3-triazol-1-yl)pyridin-2-yl]sulfonyl}amino)benzoyl]-4-(3-methyl-2,6-dioxo-3,6-dihydropyrimidin-1(2H)-yl)-L-phenylalanine] | 6.5 | 410 | 430 | 0.95 |
| Cc1cc(-c2ccc(S(=O)(=O)Nc3cc(F)c(C(=O)N[C@@H](Cc4ccc(-n5c(=O)c6c(ncn6C)n(C)c5=O)cc4)C(=O)O)c(F)c3)cc2)ccn1 [Example 74, N-[2,6-Difluoro-4-({[4-(2-methylpyridin-4-yl)phenyl]sulfonyl}amino)benzoyl]-4-(3,7-dimethyl-2,6-dioxo-2,3,6,7-tetrahydro-1H-purin-1-yl)-L-phenylalanine] | 11 | 520 | 1300 | 0.39 |
| Cn1cnc2c1c(=O)n(-c1ccc(C[C@H](NC(=O)c3c(F)cc(NS(=O)(=O)c4ccc(-c5ccncc5)cc4)cc3F)C(=O)O)cc1)c(=O)n2C [Example 75, N-(2,6-Difluoro-4-{[(4-pyridin-4-yl-phenyl)sulfonyl]amino}benzoyl)-4-(3,7-dimethyl-2,6-dioxo-2,3,6,7-tetrahydro-1H-purin-1-yl)-L-phenylalanine] | 4.2 | 310 | 820 | 0.38 |
| Cn1cnc2c1c(=O)n(-c1ccc(C[C@H](NC(=O)c3c(F)cc(NS(=O)(=O)c4ccc(-n5cccc5)cc4)cc3F)C(=O)O)cc1)c(=O)n2C [Example 76, N-[2,6-Difluoro-4-({[4-(1H-pyrrol-1-yl)phenyl]sulfonyl}amino)benzoyl]-4-(3,7-dimethyl-2,6-dioxo-2,3,6,7-tetrahydro-1H-purin-1-yl)-L-phenylalanine] | 22 | 910 | 410 | 2.2 |
| Cn1cnc2c1c(=O)n(-c1ccc(C[C@H](NC(=O)c3c(F)cc(NS(=O)(=O)c4ccc(-c5ncccn5)cc4)cc3F)C(=O)O)cc1)c(=O)n2C [Example 77, N-(2,6-Difluoro-4-{[(4-pyrimidin-2-yl-phenyl)sulfonyl]amino}benzoyl)-4-(3,7-dimethyl-2,6-dioxo-2,3,6,7-tetrahydro-1H-purin-1-yl)-L-phenylalanine] | 9.1 | 150 | 560 | 0.27 |
| COc1ccc2c(c1)c(=O)n(-c1ccc(C[C@H](NC(=O)c3c(F)cc(NS(=O)(=O)c4ccc(C(=O)NC5CC5)cc4)cc3F)C(=O)O)cc1)c(=O)n2C [Example 78, N-{4-[({4-[(Cyclopropylamino)carbonyl]phenyl}sulfonyl)amino]-2,6-difluorobenzoyl}-4-(6-methoxy-1-methyl-2,4-dioxo-1,4-dihydroquinazolin-3(2H)-yl)-L-phenylalanine] | 19 | 370 | 470 | 0.79 |
